{"source": "patent US9114067B2", "about": "“Local administration of gallium compositions to treat pain” (priority 2006, dated 2015)", "key": {"[1]": {"test_system": "non-malignant neuropathic pain", "details": "cited from earlier work"}, "[2]": {"test_system": "postherpetic neuralgia", "details": "cited from earlier work"}, "[3]": {"test_system": "peripheral neuropathic pain", "details": "cited from earlier work"}, "[4]": {"test_system": "postherpetic neuralgia", "assay": "Case report: gallium maltolate cream to treat postherpetic neuralgia (person)", "assay_type": "in vivo, human", "details": "tried over about three years before gallium treatment", "protocol": "A person had been experiencing postherpetic neuralgia with erythema on the left side of their face for approximately three years. The pain was so severe that it interfered with sleep and other daily activities. During that period they had tried numerous systemic analgesics to relieve the pain, including amitriptyline 25 mg BID, methadone 5 mg BID, carbamazepine 100 mg BID, gabapentin 200 mg QD, oxycodone 20 mg BID, naproxen, acetaminophen, and intravenous hydrogen peroxide. […] They then began treatment using the topical gallium maltolate formulation of Example 1, above. This formulation was applied three times per day to the affected area, at about 8 AM, 1 PM, and 9 PM, every day for four weeks. The formulation was administered by dipping a fingertip lightly into the formulation, and then smearing the formulation from the fingertip onto the affected area."}, "[5]": {"test_system": "painful diabetic neuropathy", "details": "Wiffen et al. 2005; cited from earlier work"}, "[6]": {"test_system": "vaginal inflammation", "assay": "Case report: gallium maltolate cream to treat pain and itching associated with vaginal inflammation (person)", "assay_type": "in vivo, human", "details": "for effect of earlier topical treatment on vaginal inflammation symptoms: same patient before gallium treatment"}, "[7]": {"details": "meta-analysis, Eisenberg et al. 2005"}}, "note": "Like-named read-outs stand apart in the source and are kept apart here."}
{"smiles": "CN1CC[C@]23CCCC[C@H]2[C@H]1Cc1ccc(O)cc13", "note": "[levorphanol]", "values": [{"measurement": "efficacy in intermediate-term (8-56 day) studies", "setting": "[1]; [7]", "result": "marginal efficacy"}, {"measurement": "efficacy in short-term (24 hour) studies", "setting": "[1]; [7]", "result": "marginal to no efficacy"}, {"measurement": "subjects who dropped out of the study due to drug side effects", "setting": "[2]; Rowbotham et al. 2003", "result": 31, "unit": "%"}, {"measurement": "average reduction in pain", "setting": "[2]; high dose, Rowbotham et al. 2003", "result": 33, "unit": "%"}, {"measurement": "average reduction in pain", "setting": "[2]; low dose, Rowbotham et al. 2003", "result": 14, "unit": "%"}]}
{"smiles": "CN(C)CCC=C1c2ccccc2CCc2ccccc21", "note": "[amitriptyline]", "values": [{"measurement": "NNT (number needed to treat) for moderate pain relief", "setting": "[3]; Saarto and Wiffen 2005", "result": 2}, {"measurement": "share of those treated with at least moderate pain relief", "setting": "[3]; explanation of NNT 2", "result": 50, "unit": "%"}, {"measurement": "pain relief from earlier treatments tried by the same patient", "setting": "[4]", "result": "None of these treatments produced significant pain relief"}]}
{"smiles": "CC(=O)Nc1ccc(O)cc1", "note": "[acetaminophen]", "values": [{"measurement": "pain relief from earlier treatments tried by the same patient", "setting": "[4]", "result": "None of these treatments produced significant pain relief"}]}
{"smiles": "NC(=O)N1c2ccccc2C=Cc2ccccc21", "note": "[carbamazepine]", "values": [{"measurement": "NNT for moderate pain relief", "setting": "[5]", "result": 2.3}, {"measurement": "pain relief from earlier treatments tried by the same patient", "setting": "[4]", "result": "None of these treatments produced significant pain relief"}]}
{"smiles": "CCC(=O)C(CC(C)N(C)C)(c1ccccc1)c1ccccc1", "note": "(stereo not shown) [methadone]", "values": [{"measurement": "efficacy in intermediate-term (8-56 day) studies", "setting": "[1]; [7]", "result": "marginal efficacy"}, {"measurement": "efficacy in short-term (24 hour) studies", "setting": "[1]; [7]", "result": "marginal to no efficacy"}, {"measurement": "pain relief from earlier treatments tried by the same patient", "setting": "[4]", "result": "None of these treatments produced significant pain relief"}]}
{"smiles": "COc1ccc2cc([C@H](C)C(=O)O)ccc2c1", "note": "[naproxen]", "values": [{"measurement": "pain relief from earlier treatments tried by the same patient", "setting": "[4]", "result": "None of these treatments produced significant pain relief"}]}
{"smiles": "O=C1NC(=O)C(c2ccccc2)(c2ccccc2)N1", "note": "[phenytoin]", "values": [{"measurement": "NNT for moderate pain relief", "setting": "[5]", "result": 2.1}]}
{"smiles": "CCOC(=O)c1ccc(N)cc1", "note": "[benzocaine]", "values": [{"measurement": "effect of earlier topical treatment on vaginal inflammation symptoms", "setting": "[6]", "result": "little effect"}]}
{"smiles": "COc1ccc2c3c1O[C@H]1C(=O)CC[C@@]4(O)[C@@H](C2)N(C)CC[C@]314", "note": "[oxycodone]", "values": [{"measurement": "efficacy in intermediate-term (8-56 day) studies", "setting": "[1]; [7]", "result": "marginal efficacy"}, {"measurement": "efficacy in short-term (24 hour) studies", "setting": "[1]; [7]", "result": "marginal to no efficacy"}, {"measurement": "pain relief from earlier treatments tried by the same patient", "setting": "[4]", "result": "None of these treatments produced significant pain relief"}]}
{"smiles": "Clc1ccc(COC(Cn2ccnc2)c2ccc(Cl)cc2Cl)c(Cl)c1", "note": "(stereo not shown) [miconazole]", "values": [{"measurement": "local tolerability of earlier topical treatment", "setting": "[6]; same patient", "result": "irritating"}, {"measurement": "effect of earlier topical treatment on vaginal inflammation symptoms", "setting": "[6]", "result": "ineffective"}]}
{"smiles": "CN1CC[C@]23c4c5ccc(O)c4O[C@H]2[C@@H](O)C=C[C@H]3[C@H]1C5", "note": "[morphine]", "values": [{"measurement": "efficacy in intermediate-term (8-56 day) studies", "setting": "[1]; in vivo", "result": "marginal efficacy"}, {"measurement": "efficacy in short-term (24 hour) studies", "setting": "[1]; in vivo", "result": "marginal to no efficacy"}]}
{"smiles": "OO", "note": "[hydrogen peroxide]", "values": [{"measurement": "pain relief from earlier treatments tried by the same patient", "setting": "[4]", "result": "None of these treatments produced significant pain relief"}]}
{"smiles": "NCC1(CC(=O)O)CCCCC1", "note": "[gabapentin]", "values": [{"measurement": "NNT for moderate pain relief", "setting": "[5]", "result": 3.8}, {"measurement": "NNT for moderate pain relief", "setting": "[2]; postherpetic neuralgia, Wiffen et al. 2005", "result": 3.2}, {"measurement": "pain relief from earlier treatments tried by the same patient", "setting": "[4]", "result": "None of these treatments produced significant pain relief"}]}
